Several values for one entry are separate records, joined by “and”; a condition that tells them apart may be missing. Equal entries are not always repeated.
Tests used:
permeabilized 143B cells = test: ADP-stimulated rotenone-sensitive OCR in permeabilized 143B cells; type: cell-based, human; design: rotenone sensitive OCR after ADP stimulation, individual replicates / rotenone sensitive OCR after ADP stimulation, average: unit not given here; conditions: for rotenone sensitive OCR after ADP stimulation, % of control, average / rotenone sensitive OCR after ADP stimulation, average / rotenone sensitive OCR after ADP stimulation, % of control, individual replicates / rotenone sensitive OCR after ADP stimulation, individual replicates: 143B permeabilised cells; for rotenone sensitive OCR after ADP stimulation, % of control, average / rotenone sensitive OCR after ADP stimulation, average: average of replicates; for rotenone sensitive OCR after ADP stimulation, % of control, individual replicates / rotenone sensitive OCR after ADP stimulation, individual replicates: replicate 1-11; for inhibition of the OCR (in words): permeabilized 143B cells, biguanide concentration equal to IC50
Method: For permeabilized cell experiments, cells were seeded into XF96 plates at 0.9–1.1 × 10^4 per well and incubated for 48 h at 37 °C in 5 % CO2. Then, the growth medium was exchanged for assay buffer containing 3 nM plasma membrane permeabilizer ‘PMP’ (Seahorse Biosciences Inc.), 10 mM glutamate, 10 mM malate, 220 mM mannitol, 70 mM sucrose, 10 mM KH2PO4, 5 mM MgCl2, 1 mM EGTA, 0.2 % fatty acid-free bovine serum albumin (BSA), and 2 mM HEPES (pH 7.4 at 37 °C). […] The biguanides were allowed to accumulate for 30 min, then respiration was […] by the addition of 4 mM ADP. Rotenone was added (2 μM) at the end of the experiment.
(§1) Rotenone-sensitive OCRs were calculated by subtracting the rotenone-insensitive rates (determined at the end of the experiment). OCRs were normalized by dividing by the OCR recorded immediately prior to the addition of biguanide. For rate of uptake calculations, the OCRs at time points after biguanide addition were divided by the OCRs at the same time points in control experiments. Data from wells with failed port injections were excluded from the analyses. The respiratory control ratio (RCR) values (state III versus state IV respiration) were ~11 and ~6 for permeabilized MDBK and 143B cells, respectively.

[1] = system: acetyl-coA carboxylase (phospho-Ser79); test: AMPK activation, western blot of phospho-acetyl-coA carboxylase in MDBK cells; type: cell-based, Bos taurus; conditions: for ACC, average normalised to control: Averages of experiments 1-3, 18 hours; for p-ACC: band intensity
Method: MDBK cells were seeded at 1 × 10^6 cells per 6 cm dish in DMEM containing 10 % FBS. […] After 18 h cells were harvested by a rapid lysis procedure: cells were rinsed with PBS, then lysed using ice-cold buffer containing 50 mM HEPES, 1 mM EDTA, 10 % glycerol, 50 mM NaF, 5 mM sodium pyrophosphate, 1 % Triton-X100, 1 mM dithiothreitol (DTT), and a protease inhibitor cocktail (Roche). The cell lysate was centrifuged at 14,000 × g for 20 min at 4 °C and the protein concentration of the supernatant determined by bicinchoninic acid assay. The lysate was analyzed using Novex 3–12 % bis-Tris gels run in 3-(N-morpholino)propanesulfonic acid (MOPS) buffer (20 μg of protein per lane) followed by transfer to low fluorescence polyvinylidene fluoride membranes by wet transfer. Primary rabbit antibodies for AMPK-β (57C12), AMPK-α (phospho-Thr172) (40H9), and acetyl-coA carboxylase (phospho-Ser79) (Cell Signaling Technology) were incubated overnight with the membrane (1:1000 dilution) in Odyssey blocking buffer at 4 °C. A fluorescent secondary antibody was used (IRDYE800CW from LI-COR Biosciences, 1:20,000 dilution) with a LI-COR Odyssey imaging system.

MDBK cells = test: Rotenone-sensitive oxygen consumption rate in intact MDBK cells; type: cell-based, Bos taurus; design: key to rotenone sensitive OCR after 40 mins of biguanide exposure / rotenone sensitive OCR after 40 mins of biguanide exposure, average: % of OCR recorded immediately before biguanide addition; conditions: biguanide at IC50/10; for rotenone sensitive OCR after 6 hours of biguanide exposure, % control, average / rotenone sensitive OCR after 6 hours of biguanide exposure, average: MDBK cells; for rotenone sensitive OCR after 6 hours of biguanide exposure, average: OCR normalized to OCR immediately prior to biguanide addition; for rotenone sensitive OCR after 40 mins of biguanide exposure, % control, average / rotenone sensitive OCR after 40 mins of biguanide exposure, average / rotenone sensitive OCR after 40 mins of biguanide exposure / rotenone sensitive OCR after 40 mins of biguanide exposure, % control: MDBK intact cells; for rotenone sensitive OCR after 40 mins of biguanide exposure, % control, average / rotenone sensitive OCR after 40 mins of biguanide exposure, average: average of replicates; for rotenone sensitive OCR after 40 mins of biguanide exposure / rotenone sensitive OCR after 40 mins of biguanide exposure, % control: individual replicates
Method: (§2) 143B (CRL-8303 from ATCC), HepG2 (85011430 from The Health Protection Agency), and MDBK (CCL-22 from ATCC) cells were grown on Dulbecco’s modified Eagle’s medium (DMEM) supplemented with 10 % fetal bovine serum (FBS, Thermo Fisher Scientific) at 37 °C in 5 % CO2. All cells were confirmed as negative for mycoplasma.
(§3) Oxygen consumption rates (OCRs) were measured using a Seahorse XF96 extracellular flux analyzer at 37 °C. For intact cell measurements, 1.4 × 10^4 143B, HepG2, or MDBK cells were plated (per well) in DMEM containing 10 % FBS into Seahorse Bioscience Inc. XF96 plates and incubated for ~12 h at 37 °C in 5 % CO2. Then, the medium was exchanged for assay buffer containing DMEM, 4.5 g L^−1 glucose, 1 mM pyruvate, 32 mM NaCl, 2 mM GlutaMAX, 15 mg L^−1 phenol red, and 20 mM HEPES (pH 7.4 at 37 °C) and the cells placed in a CO2-free incubator at 37 °C for 30 min. Basal oxygen consumption rates were established before the addition of biguanides at one-tenth of their IC50 (IC50/10), and followed for ~ 6 h before the addition of rotenone (2 μM).
as §1

143B cells = test: Rotenone-sensitive oxygen consumption rate in intact 143B cells; type: cell-based, human; conditions: for rotenone sensitive OCR after 6 hours of biguanide exposure, % control, average / rotenone sensitive OCR after 6 hours of biguanide exposure, average: 143B cells, biguanide at IC50/10; for rotenone sensitive OCR after 6 hours of biguanide exposure, average: OCR normalized to OCR immediately prior to biguanide addition
Method: as §2, §3, §1

Structure (SMILES) | rotenone sensitive OCR after ADP stimulation, % of control, individual replicates (permeabilized 143B cells) | rotenone sensitive OCR after ADP stimulation, individual replicates (permeabilized 143B cells) | ACC, average normalised to control [1] | p-ACC / AMPK beta ([1]; Experiment 1, 18 hours) | p-ACC / AMPK beta normalised to control ([1]; Experiment 1, 18 hours) | p-ACC ([1]; Experiment 1, 18 hours) | p-ACC / AMPK beta ([1]; Experiment 2, 18 hours) | p-ACC / AMPK beta normalised to control ([1]; Experiment 2, 18 hours) | p-ACC ([1]; Experiment 2, 18 hours) | p-ACC / AMPK beta ([1]; Experiment 3, 18 hours) | p-ACC / AMPK beta normalised to control ([1]; Experiment 3, 18 hours) | p-ACC ([1]; Experiment 3, 18 hours) | rotenone sensitive OCR after 6 hours of biguanide exposure, % control, average (MDBK cells) [% control] | rotenone sensitive OCR after 6 hours of biguanide exposure, average (MDBK cells) | rotenone sensitive OCR after 40 mins of biguanide exposure, % control, average (MDBK cells) [% control] | rotenone sensitive OCR after 40 mins of biguanide exposure, average (MDBK cells) | rotenone sensitive OCR after 40 mins of biguanide exposure (MDBK cells) | rotenone sensitive OCR after 40 mins of biguanide exposure, % control (MDBK cells) | rotenone sensitive OCR after 6 hours of biguanide exposure, % control, average (143B cells) [% control] | rotenone sensitive OCR after 6 hours of biguanide exposure, average (143B cells) | other results
CC(C)N=C(N)N=C(N)NC(C)C [compound 5, N-(propan-2-yl)-1-3-(propan-2-yl)carbamimidamidomethanimidamide] | 36.39 % of control and 47.66 % of control and 76.44 % of control and 36.22 % of control and 38.53 % of control and 52.52 % of control and 38.52 % of control and 38.94 % of control | 86.86 and 113.77 and 182.47 and 86.47 and 91.97 and 125.38 and 91.96 and 92.95 | 1.36 | 0.27 | 1.41 | 131 | 0.23 | 1.44 | 70.3 | 0.36 | 1.22 | 64.6 | 95.30 | 95.59 | 97.92 | 99.64 | 98.03 and 101.32 and 101.34 and 98.05 and 98.68 and 101.35 and 98.70 | 96.34 % control and 99.57 % control and 99.60 % control and 96.36 % control and 96.98 % control and 99.61 % control and 97.00 % control | 102.76 | 120.45 | rotenone sensitive OCR after ADP stimulation, % of control, average (permeabilized 143B cells): 45.65 % of control; rotenone sensitive OCR after ADP stimulation, average (permeabilized 143B cells): 108.98; inhibition of the OCR (in words) (permeabilized 143B cells): only limited inhibition; inhibition of rotenone-sensitive respiration (in words) (143B cells; intact 143B cells, biguanide at IC50/10, monitored for 6 h): do not
[H]/N=C(/N)N/C(=N/[H])NCCc1ccccc1 [phenformin, reference compound] | 10.68 % of control and 13.07 % of control and 7.19 % of control and 19.54 % of control and 11.54 % of control and 11.56 % of control and 7.70 % of control and 13.62 % of control and 4.19 % of control and 11.40 % of control and 4.31 % of control | 25.49 and 31.21 and 17.16 and 46.64 and 27.56 and 27.59 and 18.38 and 32.52 and 10.00 and 27.22 and 10.30 | 7.37 | 1.27 | 6.56 | 586 | 1.60 | 9.93 | 598 | 1.68 | 5.62 | 404 | 42.78 | 42.91 | 95.24 | 96.91 | 97.35 and 95.76 and 94.48 and 101.29 and 95.15 and 97.44 | 95.67 % control and 94.11 % control and 92.85 % control and 99.55 % control and 93.51 % control and 95.76 % control | 9.47 | 11.10 | –
[H]/N=C(\N/C(=N/[H])Nc1ccc(Cl)cc1)NC(C)C [proguanil, reference compound] | 79.43 % of control and 103.02 % of control and 144.04 % of control and 93.57 % of control and 102.53 % of control and 101.42 % of control and 111.43 % of control and 105.36 % of control and 115.13 % of control | 189.61 and 245.92 and 343.85 and 223.38 and 244.75 and 242.11 and 266.00 and 251.51 and 274.84 | 1.76 | 0.34 | 1.73 | 161 | 0.32 | 1.97 | 112 | 0.47 | 1.56 | 91.3 | 89.87 | 90.15 | 96.96 | 98.65 | 102.33 and 100.74 (2×) and 97.32 and 96.18 and 94.63 | 100.56 % control and 99.00 % control and 99.01 % control and 95.64 % control and 94.52 % control and 93.00 % control | 94.32 | 110.56 | rotenone sensitive OCR after ADP stimulation, % of control, average (permeabilized 143B cells): 106.21 % of control; rotenone sensitive OCR after ADP stimulation, average (permeabilized 143B cells): 253.55; inhibition of the OCR (in words) (permeabilized 143B cells): only limited inhibition
